Measurements taken from ChEMBL document CHEMBL4251689, “Azabicyclic Fused Pyrimidine Derivatives Useful for the Treatment of Alzheimer's Disease” (ACS Med Chem Lett, 2018).

These compounds were tested against Gamma-secretase (assay: Inhibition of gamma-secretase (unknown origin) assessed as reduction in amyloid beta (1 to 42) production after 60 mins by cell based AlphaLisa assay).
Set-up: species or system Homo sapiens

SMILES | EC50
CNc1nc(N[C@@H]2[C@@H]3CC[C@H]2CN(c2cc(C)ncn2)C3)nc2c1C(C)(C)CCN2c1ccc(F)cc1 | 0.035 µM
CNc1nc(N[C@@H]2[C@@H]3CC[C@H]2CN(c2cc(C)ncn2)C3)nc2c1C(C)(C)CN2C1CC(F)(F)C1 | 0.036 µM
CNc1nc(N[C@@H]2[C@@H]3CC[C@H]2CN(c2cc(C)ncn2)C3)nc2c1C(C)(C)CN2c1ccc(F)cc1 | 0.014 µM
CNc1nc(N[C@@H]2[C@@H]3CC[C@H]2CN(c2ccnnc2)C3)nc2c1C(C)(C)CN2c1ccc(F)cc1 | 0.019 µM
CNc1nc(N[C@@H]2[C@@H]3CC[C@H]2CN(c2nnc(C)o2)C3)nc2c1C(C)(C)CN2c1ccc(F)cc1 | 0.034 µM
CNc1nc(N[C@@H]2[C@@H]3CC[C@H]2CN(c2cc(C)ncn2)C3)nc2c1C(C)(C)CN2C12CC(C(F)(F)F)(C1)C2 | 0.111 µM
